According to PubChem BioAssay (NCI):
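Grown in 96-well plates, cells were treated for 48 hours with each compound at five concentrations. Insufficient inhibition: endpoint recorded as highest concentration tested. Abbreviation: GI50, concentration required for 50% inhibition of growth. TGI marks complete inhibition of growth.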

Key:
Experiment in all cases: NCI-60 cell line screen, 48 h
EKVX NSCLC = system: EKVX NSCLC
HCT-15 colon = system: HCT-15 colon
HOP-62 NSCLC = system: HOP-62 NSCLC
HT29 colon = system: HT29 colon
OVCAR-3 ovarian = system: OVCAR-3 ovarian
SF-295 CNS = system: SF-295 CNS
SF-539 CNS = system: SF-539 CNS
SK-OV-3 ovarian = system: SK-OV-3 ovarian
UACC-257 melanoma = system: UACC-257 melanoma
UO-31 renal = system: UO-31 renal

| Structure (SMILES) | TGI (EKVX NSCLC) [µM] | TGI (HCT-15 colon) [µM] | TGI (HOP-62 NSCLC) [µM] | TGI (HT29 colon) [µM] | TGI (OVCAR-3 ovarian) [µM] | TGI (SF-295 CNS) [µM] | TGI (SF-539 CNS) [µM] | TGI (SK-OV-3 ovarian) [µM] | TGI (UACC-257 melanoma) [µM] | TGI (UO-31 renal) [µM] | GI50 (EKVX NSCLC) [µM] | GI50 (HCT-15 colon) [µM] | GI50 (HOP-62 NSCLC) [µM] | GI50 (HT29 colon) [µM] | GI50 (OVCAR-3 ovarian) [µM] | GI50 (SF-295 CNS) [µM] | GI50 (SF-539 CNS) [µM] | GI50 (SK-OV-3 ovarian) [µM] | GI50 (UACC-257 melanoma) [µM] | GI50 (UO-31 renal) [µM] |
| --- | --- | --- | --- | --- | --- | --- | --- | --- | --- | --- | --- | --- | --- | --- | --- | --- | --- | --- | --- | --- |
| COc1ccc(NC(=O)CC/C(CC(=O)c2ccco2)=N/NC(=O)C(N)=O)cc1 | > 100 | > 100 | > 100 | > 100 | > 100 | > 100 | > 100 | > 100 | > 100 | > 100 |  |  |  |  |  |  |  |  |  |  |
| CN(C)Cc1cc(C(F)(F)F)ccc1C(O)(c1ccccc1)c1ccccc1 | 29.6 | 28.6 | 33.7 | 21.6 | > 100 | 50 | 32.7 | 56.5 | 24 | 28.5 |  |  |  |  |  |  |  |  |  |  |
| CN(c1ccc(NC(=O)Nc2c(Cl)cccc2Cl)cc1)c1ccnc(Nc2cccc(CS(C)(=O)=O)c2)n1 | > 25 | > 25 | 11.9 | 7.81 | 5.2 | 12.6 | 6.4 | 12 | 6.55 | 13.3 | 6.31 | 5.6 | 3.71 | 2.16 | 1.65 | 1.54 | 0.304 | 4.72 | 1.94 | 4.28 |
